Measurements: the OligoGym collection
“And” between values parts separate entries of the source, which are not always exact repeats. Equal entries are not always repeated. After the bases stand the sugars from the 5' end (letter, count) and the backbone: PS all phosphorothioate, else s phosphorothioate and o phosphodiester by linkage. Methylation of C is not given here. e = 2'-O-(2-methoxyethyl) (MOE); k = constrained ethyl (cEt); d = 2'-deoxy (DNA)

Molecular target: APOL1
Conditions: ASO

Row | Sequence | target mRNA inhibition (A431, 2 µM) [%] | target mRNA inhibition (A431, 0.0625 µM) | target mRNA inhibition (A431, 0.25 µM) | target mRNA inhibition (A431, 1 µM) | other results
1 | TATTCTCATGGTACAG (sugars k2 d4 e3 k2 d5, PS) | 71 |  |  |  | 
2 | TTATTCTCATGGTACA (sugars kkddddekekeddddd, PS) | 51 |  |  |  | 
3 | AAGTATTGCCAGCTAA (sugars kkddddkekekkdddd, PS) | 27 |  |  |  | 
4 | AGTTTCATATTCACCC (sugars k4 d9 k3, PS) |  | 58% | 83% | 94% | 
5 | CACCTGTTCACCGCTT (sugars k4 d9 k3, PS) |  | 41% | 67% | 87% | 
6 | CTTTATACCAGTGTCT (sugars kdddddkekekddddd, PS) | 89 |  |  |  | 
7 | CAGTTTTGTAAGTGCA (sugars kkddddekekeddddd, PS) | 91 |  |  |  | 
8 | GAAGCTTTAAACTCAG (sugars kkddddekekeddddd, PS) | 62 |  |  |  | 
9 | CAGTTCCCATTTTTCC (sugars k4 d9 k3, PS) |  | 62% | 83% | 94% | 
10 | GTAAGTGCTTTGATTC (sugars k4 d9 k3, PS) |  | 64% | 83% | 92% | 
11 | CATTCAGAATTTCCAC (sugars kkddddkdkdkddddd, PS) | 84 |  |  |  | 
12 | AGATTGGCTCTGGCTC (sugars kkddddkekekkdddd, PS) | 18 |  |  |  | 
13 | AGTTTTGTAAGTGCAA (sugars kkddddkekekkdddd, PS) | 84 |  |  |  | 
14 | TTTTGTAAGTGCAACC (sugars k3 d4 k3 e1 d5, PS) | 98 | 71% | 93% | 97% and 98% and 94% | target mRNA inhibition (A431, 0.0156 µM): 38%; target mRNA inhibition (A431, 0.04 µM): 38% and 24%
15 | GGTTATGAAATTATTG (sugars k3 d4 k3 e1 d5, PS) | 91 |  |  |  | 
16 | CGTCAATATATTCTTT (sugars kekddddeekkddddd, PS) | 93 |  |  |  | 
17 | ATTCTCATGGTACAGG (sugars kkkddddkdkdkdddd, PS) | 81 |  |  |  | 
18 | ATTCTATTAGAGGGCT (sugars kkddddkekekkdddd, PS) | 34 |  |  |  | 
19 | GGGAATTATGGAATTG (sugars kkkddddkekeddddd, PS) | 63 |  |  |  | 
20 | CCTTACTGCAGTTTCA (sugars k4 d9 k3, PS) |  | 47% | 79% | 91% | 

Row | Sequence | target mRNA inhibition (A431, 2 µM) [%] | target mRNA inhibition (A431, 0.0625 µM) | target mRNA inhibition (A431, 0.25 µM) | target mRNA inhibition (A431, 1 µM) | other results
21 | TTATATTTGATCCTCA (sugars kkddddkekekkdddd, PS) | 69 |  |  |  | 
22 | GTTATGAAATTATTGG (sugars kkkddddkekekdddd, PS) | 79 |  |  |  | 
23 | CTTTATACCAGTGTCT (sugars kkddddkekekkdddd, PS) | 87 |  |  |  | 
24 | GAACGCAATGCTGACT (sugars kkddddkekekddddd, PS) | 78 |  |  |  | 
25 | GTTATATTTGATCCTC (sugars kekddddeekkddddd, PS) | 99 | 71% | 91% | 98% | target mRNA inhibition (A431, 0.0156 µM): 37%; target mRNA inhibition (A431, 0.04 µM): 31%
26 | GAAGATTGGCTCTGGC (sugars kdddddkekekddddd, PS) | 44 |  |  |  | 
27 | GATTTTTCTTTGACCG (sugars k4 d9 k3, PS) |  | 80% and 81% | 95% and 94% | 99% and 98% | 
28 | GGAATTATGGAATTGC (sugars k2 d4 e3 k2 d5, PS) | 99 | 38% | 84% | 96% | target mRNA inhibition (A431, 0.0156 µM): 8%
29 | TGTTTACTTACCGGGT (sugars k4 d9 k3, PS) |  | 60% and 83% | 86% and 91% | 91% and 93% | 
30 | CGTCAATATATTCTTT (sugars k3 d5 k3 d5, PS) | 94 | 56% and 62% | 84% and 87% | 93% | target mRNA inhibition (A431, 0.0156 µM): 38%
31 | TTTAAACTCAGGTGAC (sugars kdddddkekekddddd, PS) | 45 |  |  |  | 
32 | AAGTATTGCCAGCTAA (sugars kkkddddkdkdkdddd, PS) | 54 |  |  |  | 
33 | TTCTCATGGTACAGGA (sugars kkddddkekekddddd, PS) | 76 |  |  |  | 
34 | CAGTTTTGTAAGTGCA (sugars kkddddkekekddddd, PS) | 91 |  |  |  | 
35 | ACACATCATTGGGTTA (sugars kddddkekekeddddd, PS) | 36 |  |  |  | 
36 | AGCTTTAAACTCAGGT (sugars kkkddddkekeddddd, PS) | 85 |  |  |  | 
37 | ATTCTGTGTGCTCACT (sugars k4 d9 k3, PS) |  | 65% | 80% | 92% | 
38 | AGTATTGTTTTTGTGG (sugars kkddddkekekddddd, PS) | 75 |  |  |  | 
39 | GTTATATTTGATCCTC (sugars kkddddkdkdkddddd, PS) | 93 | 38% | 68% | 89% | target mRNA inhibition (A431, 0.0156 µM): 9%
